From patent US10668056B2, “Pharmaceutical composition comprising indole derivatives, process for preparation and use thereof” (VIVOLUX AB, priority 2015, dated 2020)
Like-named read-outs stand apart in the source and are kept apart here.

Columns and labels:
RKO (Colon carcinoma) = test: FMCA cytotoxicity, RKO; format: cell-based, human; conditions: 72 h
Procedure: (§1) The inventors also set out to characterize activity of the compounds A, B and C in cell lines representing cancer of different origin. The specific assays used and the conclusions from the mechanistic evaluation have previously been described in detail (Zhang et al. 2014). Compounds A, B and C (See FIG. 4) were evaluated for cytotoxicity expressed as survival index (SI) in six human tumor cell lines using the cell based fluorometric micro culture cytotoxicity assay (FMCA) as previously described in detail (Lindhagen et al, 2008). The method is based on measurement of fluorescent fluorescein, generated from hydrolysis of FDA by viable cells with intact plasma membrane. The fluorescence is proportional to the number of intact viable cells.
(§2) The cell lines were cultivated in the respective cell medium recommended by the provider. The medium was supplemented with 10% heat-inactivated fetal bovine serum, 2 mmol/L L-glutamine, 100 μg/mL streptomycin and 100 U/mL penicillin (all from Sigma-Aldrich). The cell line was cultured at 37° C. in a humidified atmosphere containing 5% CO2.
(§3) FMCA analysis in brief, 2500 cells per well were seeded into 384-well microplates and incubated over night before treatment with compounds. Compounds were added using acoustic liquid transfer (Echo 550, LabCyte). The plates were incubated at 37° C. for 72 h, and then washed and FDA was added to the wells followed by 50 min of incubation at 37° C. The fluorescence, which is proportional to the number of living cells in each well, was measured at 485/520 nm in a Fluoroskan instrument (Labsystems, GMI, Ramsey, Minn.). Cell survival is presented as Survival Index (SI), defined as the fluorescence value in the compound-treated wells analysed as percentage of the value in the control wells, with blank values subtracted. Quality criteria included a signal/blank ratio >10 and a coefficient of variation (CV) in control and blank wells <30%. Graph Pad Prism (San Diego, Calif., USA). All experiments were performed twice, and each concentration was evaluated in quadruplicates in each experiment. […]

[1] = tested on: THP-1 (Acute Monocytic Leukemia); test: FMCA cytotoxicity, THP-1; format: cell-based, human; conditions: 72 h
Procedure: as §1, §2, §3

[2] = tested on: HepG2 (Hepatocellular Carcinoma); test: FMCA cytotoxicity, HepG2; format: cell-based, human; conditions: 72 h
Procedure: as §1, §2, §3

[3] = tested on: primary human tumor cell cultures, Gastric; conditions: 9 patients analyzed, 72 h
Procedure: (§4) Cells were seeded in the drug-prepared 384-well plates using the pipetting robot Precision 2000 (Bio-Tek Instruments Inc., Winooski, Vt.).

[4] = tested on: primary human tumor cell cultures, Ovarian; conditions: 30 patients analyzed, 72 h
Procedure: as §4

[5] = tested on: primary human tumor cell cultures, Mesothelioma; conditions: 7 patients analyzed, 72 h
Procedure: as §4

[6] = tested on: primary human tumor cell cultures, Pancreas; conditions: 1 patient analyzed, 72 h
Procedure: as §4

[7] = tested on: primary human tumor cell cultures, Renal; conditions: 13 patients analyzed, 72 h
Procedure: as §4

[8] = tested on: various cell lines (CCRF-CEM, RPMI-8226, A2780, FaDu, HT29, MCF7, HL-60) and primary human tumor cell cultures; conditions: FIG. 3
Procedure: as §4

[9] = tested on: primary human tumor cell cultures, Colorectal cancer; conditions: 25 patients analyzed, 72 h
Procedure: as §4

[10] = tested on: primary human tumor cell cultures, Appendix; conditions: 4 patients analyzed, 72 h
Procedure: as §4

[11] = tested on: primary human tumor cell cultures, PMP (Pseudomyxoma Peritonei); conditions: 50 patients analyzed, 72 h
Procedure: as §4

[12] = tested on: primary human tumor cell cultures, Small bowel; conditions: 1 patient analyzed, 72 h
Procedure: as §4

[13] = tested on: six human tumor cell lines; test: FMCA cytotoxicity, six human tumor cell lines (overall); format: cell-based; conditions: Table 6 and FIG. 4
Procedure: as §1, §2, §3

[14] = tested on: CCRF-CEM (Acute lymphoblastic leukemia); test: FMCA cytotoxicity, CCRF-CEM; format: cell-based, human; conditions: 72 h
Procedure: as §1, §2, §3

HCT116 (Colon carcinoma) = test: FMCA cytotoxicity, HCT116; format: cell-based, human; conditions: 72 h
Procedure: as §1, §2, §3

[15] = tested on: HeLa (Cervix Adenocarcinoma); test: FMCA cytotoxicity, HeLa; format: cell-based, human; conditions: 72 h
Procedure: as §1, §2, §3

[16] = same sample re-analysed after 2 days

## C/C(=N\Nc1nnc2c(n1)[nH]c1c(C)cccc12)c1ccccn1 [Compound A, 2-[(1E,Z)-1-(2-{6-methyl-5H-[1,2,4]triazino[5,6-b]indole-3-yl}hydrazine-1-ylidene)ethyl]-pyridine]
RKO (Colon carcinoma)
  IC50: < 0.25 µM
[1]
  IC50: < 0.25 µM
[2]
  IC50: < 0.25 µM
[3]
  IC50: 6.9 µM
[4]
  IC50: 5.7 µM
[5]
  IC50: 12 µM
[6]
  IC50: 6 µM
[7]
  IC50: 164 µM
[8]
  anti-cancer activity: broad anti-cancer activity
[9]
  IC50: 11 µM
[10]
  IC50: 21 µM
[11]
  IC50: 9.4 µM
[12]
  IC50: 5.4 µM
[13]
  activity on cancer cell lines: strong activity
[14]
  IC50: < 0.25 µM
HCT116 (Colon carcinoma)
  IC50: ~1 µM
[16]
  Z-isomer content: ~2%
  hydrolysis detected: ~1%
Sample preparation in 0.1% TFA/H2O, first analysis
  Z-isomer content: ~7%
[15]
  IC50: ~20 µM
